Laboratory results published in US20260272964A1, “PENTAGALLOYL GLUCOSE DERIVED FROM SCHINUS PLANTS AND METHODS OF USE” (Emory University, priority 2020, published 2026).
Converted amounts (≈) assume the structure as drawn. “And” between values parts separate entries of the source, which are not always exact repeats. Identical values can stand only once. “Also recorded” adds a separate entry of the source. Like-named read-outs stand apart in the source and are kept apart here.

Columns and labels:
Enterococcus faecium = assay: Growth inhibition of ESKAPE pathogens; type: cell-based
Description: (§1) PGG was also tested against a panel of other ESKAPE pathogens: Enterococcus faecium, Staphylococcus aureus, Klebsiella pneumoniae, Pseudomonas aeruginosa, and Enterobacter cloacae.

Klebsiella pneumoniae = assay: Growth inhibition of ESKAPE pathogens; type: cell-based
Description: as §1

Staphylococcus aureus = assay: Growth inhibition of ESKAPE pathogens; type: cell-based; conditions: strain LAC
Description: as §1

Enterobacter cloacae = assay: Growth inhibition of ESKAPE pathogens; type: cell-based
Description: as §1

Pseudomonas aeruginosa = assay: Growth inhibition of ESKAPE pathogens; type: cell-based
Description: as §1

A. baumannii AB5075 [1] = assay: Biofilm formation inhibition and biofilm eradication; type: cell-based, Acinetobacter baumannii
Description: However, there was no significant difference between PGG and control with regards to biofilm promotion or inhibition at any concentration tested and no dose-response trend was noted.

A. baumannii AB5075 [2] = assay: Resistance studies (agar plates and 21-day serial passaging); type: cell-based, Acinetobacter baumannii
Description: To test for spontaneous development of resistance to PGG, A. baumannii AB5075 was inoculated on agar plates containing PGG at 0.5×MIC, 1×MIC, and 2×MIC (128, 256, and 512 μg/mL, respectively), and a control plate containing no PGG. […] Next, evolution of resistance was tested by serial passaging A. baumannii AB5075 for 21 days in the presence of a PGG gradient, using culture from the 0.5×MIC treatment for each subsequent passage. Serial passaging with a tetracycline gradient served as a control.

Candida species = assay: Growth inhibition of a panel of Candida strains; type: cell-based
Description: (§2) The activity of PGG was tested for growth inhibition against two susceptible strains and 6 drug resistant strains from three Candida species (Table 2). […] The activity of PGG followed a dose-response curve against tested strains. Typically the strains tested had MICs less than 2 μg/mL. Candida glabrata (AR Bank #0335) yielded the highest MIC at 8 μg/mL.

A. baumannii = assay: Time-kill assays with and without supplements; type: cell-based, Acinetobacter baumannii
Description: PGG antibacterial activity may be attributed to its chelation of iron. One can use a colorimetric assay to quantify binding of free iron by PGG. One can perform bioassays with iron supplementation and 2,2′-dipyridyl, a known iron chelator, as a control. To elucidate potential mechanisms of action of PGG, A. baumannii growth inhibition and time-kill assays were carried out with various supplements in combination with PGG: 0.02% oleic acid, 0.02% polysorbate 80, 1 mM iron (II) sulfate, and 1 mM iron (III) sulfate. […] Furthermore, PGG combined with oleic acid, polysorbate 80, and iron (II) sulfate treatments had roughly tenfold, 100-fold, and 1,000-fold higher CFU/mL measurements, respectively, than PGG alone at the 24 h timepoint.

[3] = Lactate dehydrogenase (LDH) cytotoxicity assay; type: cell-based, human; conditions: human; HaCaT, LDH assay
Description: (§3) Immortalized human keratinocyte cells (HaCaTs) were used in a lactate dehydrogenase (LDH) assay to assess cytotoxicity by PGG and its parents.

[4] = test system: Immortalized human keratinocyte cells (HaCaTs); assay: Lactate dehydrogenase (LDH) cytotoxicity assay; type: cell-based; conditions: HaCaT IC50 over median IC50 for growth inhibition of A. baumannii
Description: as §3

Candida tropicalis = assay: Growth inhibition of Candida species; type: cell-based; conditions: Table 2, strain AR Bank #0345
Description: as §2

Candida albicans = assay: Growth inhibition of Candida species; type: cell-based
Description: as §2

Candida auris = assay: Growth inhibition of Candida species; type: cell-based; conditions: Candidozyma auris
Description: as §2

Candida parapsilosis = assay: Growth inhibition of Candida species; type: cell-based; conditions: Lodderomyces parapsilosis
Description: as §2

Candida glabrata = assay: Growth inhibition of Candida species; type: cell-based
Description: as §2

O=C(OC[C@H]1O[C@@H](OC(=O)c2cc(O)c(O)c(O)c2)[C@H](OC(=O)c2cc(O)c(O)c(O)c2)[C@@H](OC(=O)c2cc(O)c(O)c(O)c2)[C@@H]1OC(=O)c1cc(O)c(O)c(O)c1)c1cc(O)c(O)c(O)c1 [PGG, [(2R,3R,4S,5R,6S)-3,4,5,6-tetrakis[(3,4,5-trihydroxybenzoyl)oxy]oxan-2-yl]methyl 3,4,5-trihydroxybenzoate]
IC50 (Enterococcus faecium; strain NR-31915, read-out: PGG IC50): 128 µg/mL (≈ 136 µM)
MIC (Enterococcus faecium; strain NR-31915, read-out: PGG MIC): > 256 µg/mL
MIC (Klebsiella pneumoniae; read-out: PGG MIC): 256 µg/mL (≈ 272 µM)
IC50 (Klebsiella pneumoniae; strain NR-15410, read-out: PGG IC50): 8 µg/mL (≈ 8.5 µM)
IC50 (Staphylococcus aureus; read-out: PGG IC50): 16 µg/mL (≈ 17 µM)
MIC (Staphylococcus aureus; read-out: PGG MIC): 64 µg/mL (≈ 68 µM)
MIC (Enterobacter cloacae; read-out: PGG MIC): > 256 µg/mL
IC50 (Enterobacter cloacae; strain AR Bank #0032, read-out: PGG IC50): 64 µg/mL (≈ 68 µM)
MIC (Pseudomonas aeruginosa; P. aeruginosa, strain not given, read-out: MIC): 16 µg/mL (≈ 17 µM)
IC50 (Pseudomonas aeruginosa; strain AR Bank #0054, read-out: PGG IC50): 8 µg/mL (≈ 8.5 µM)
MIC (Pseudomonas aeruginosa; strain AR Bank #0054, read-out: PGG MIC): > 64 µg/mL
IC50 (Pseudomonas aeruginosa; strain AR Bank #0064, read-out: PGG IC50): 4 µg/mL (≈ 4.25 µM)
MIC (Pseudomonas aeruginosa; strain AR Bank #0064, read-out: PGG MIC): 16 µg/mL (≈ 17 µM)
IC50 (Pseudomonas aeruginosa; strain AR Bank #0090, read-out: PGG IC50): 4 µg/mL (≈ 4.25 µM)
MIC (Pseudomonas aeruginosa; strain AR Bank #0090, read-out: PGG MIC): > 64 µg/mL
IC50 (Pseudomonas aeruginosa; strain AR Bank #0092, read-out: PGG IC50): 4 µg/mL (≈ 4.25 µM)
MIC (Pseudomonas aeruginosa; strain AR Bank #0092, read-out: PGG MIC): > 64 µg/mL
IC50 (Pseudomonas aeruginosa; strain AR Bank #0094, read-out: PGG IC50): 8 µg/mL (≈ 8.5 µM)
MIC (Pseudomonas aeruginosa; strain AR Bank #0094, read-out: PGG MIC): 64 µg/mL (≈ 68 µM)
IC50 (Pseudomonas aeruginosa; strain AR Bank #0095, read-out: PGG IC50): 8 µg/mL (≈ 8.5 µM)
MIC (Pseudomonas aeruginosa; strain AR Bank #0095, read-out: PGG MIC): 64 µg/mL (≈ 68 µM)
IC50 (Pseudomonas aeruginosa; strain AR Bank #0100, read-out: PGG IC50): 8 µg/mL (≈ 8.5 µM)
MIC (Pseudomonas aeruginosa; strain AR Bank #0100, read-out: PGG MIC): > 64 µg/mL
IC50 (Pseudomonas aeruginosa; strain AR Bank #0103, read-out: PGG IC50): 4 µg/mL (≈ 4.25 µM)
MIC (Pseudomonas aeruginosa; strain AR Bank #0103, read-out: PGG MIC): 64 µg/mL (≈ 68 µM)
IC50 (Pseudomonas aeruginosa; strain AR Bank #0105, read-out: PGG IC50): 32 µg/mL (≈ 34 µM)
MIC (Pseudomonas aeruginosa; strain AR Bank #0105, read-out: PGG MIC): > 64 µg/mL
IC50 (Pseudomonas aeruginosa; strain AR Bank #0108, read-out: PGG IC50): 8 µg/mL (≈ 8.5 µM)
MIC (Pseudomonas aeruginosa; strain AR Bank #0108, read-out: PGG MIC): > 64 µg/mL
IC50 (Pseudomonas aeruginosa; strain AR Bank #0110, read-out: PGG IC50): 4 µg/mL (≈ 4.25 µM)
MIC (Pseudomonas aeruginosa; strain AR Bank #0110, read-out: PGG MIC): 64 µg/mL (≈ 68 µM)
IC50 (Pseudomonas aeruginosa; strain AR Bank #0111, read-out: PGG IC50): 4 µg/mL (≈ 4.25 µM)
MIC (Pseudomonas aeruginosa; strain AR Bank #0111, read-out: PGG MIC): 64 µg/mL (≈ 68 µM)
IC50 (Pseudomonas aeruginosa; strain PA01, read-out: PGG IC50): 8 µg/mL (≈ 8.5 µM)
MIC (Pseudomonas aeruginosa; strain PA01, read-out: PGG MIC): 16 µg/mL (≈ 17 µM)
biofilm formation inhibition (A. baumannii AB5075 [1]; AB5075, 0.5-64 μg/mL (sub-MIC)): did not exhibit any antibiofilm activity
biofilm eradication (A. baumannii AB5075 [1]; AB5075, 2-256 μg/mL): did not exhibit any antibiofilm activity
biofilm formation relative to vehicle (DMSO) control (A. baumannii AB5075 [1]; AB5075, 8-64 μg/mL, not significant): mild promotion of biofilm formation
evolution of resistance on serial passaging (A. baumannii AB5075 [2]; A. baumannii AB5075, 21 daily passages from the 0.5×MIC treatment): did not produce any resistant mutants; also recorded: remained stable; also recorded: did not stimulate any spontaneous resistance
spontaneous development of resistance (colonies on agar plates) (A. baumannii AB5075 [2]; A. baumannii AB5075, agar with 128, 256 and 512 μg/mL, 24 h): no colonies appeared
MIC (A. baumannii AB5075 [2]; Acinetobacter baumannii, AB5075, read-out: Base MIC): 256 µg/mL (≈ 272 µM)
MIC (Candida species; Candida strains tested, read-out: MICs typical of the strains tested): < 2 µg/mL
IC50 (Candida species; two susceptible and 6 drug resistant strains from three Candida species, read-out: IC50 values, range over strains): 0.25 µg/mL to 2 µg/mL and 260 nM to 2.1 µM
kind of activity in time-kill (CFU/mL curve) (A. baumannii; PGG alone, 256 μg/mL): bacteriostatic rather than bactericidal
CFU/mL relative to PGG alone (A. baumannii; PGG combined with iron (II) sulfate, 24 h timepoint): ~1,000 fold
CFU/mL relative to PGG alone (A. baumannii; PGG combined with oleic acid, 24 h timepoint): roughly tenfold
CFU/mL relative to PGG alone (A. baumannii; PGG combined with polysorbate 80, 24 h timepoint): ~100 fold
IC50 [3]: 256 µg/mL (≈ 272 µM)
therapeutic index [4]: 32
IC50 (Candida tropicalis): 0.25 µg/mL (≈ 0.266 µM)
MIC (Candida tropicalis): 1 µg/mL (≈ 1.06 µM)
IC50 (Candida albicans; Candida albicans, Table 2, strain ARMH12 (Flc^R)): 0.5 µg/mL (≈ 0.532 µM)
MIC (Candida albicans; Candida albicans, Table 2, strain ARMH12 (Flc^R), read-out: MIC): 1 µg/mL (≈ 1.06 µM)
IC50 (Candida albicans; Candida albicans, Table 2, strain ATCC10231): 0.25 µg/mL (≈ 0.266 µM)
MIC (Candida albicans; Candida albicans, Table 2, strain ATCC10231, read-out: MIC): 0.5 µg/mL (≈ 0.532 µM)
IC50 (Candida albicans; Candida albicans, Table 3, strain ATCC90028): 1 µg/mL (≈ 1.06 µM)
MIC (Candida albicans; Candida albicans, Table 3, strain ATCC90028, read-out: MIC): 2 µg/mL (≈ 2.13 µM)
MIC (Candida albicans; Table 3, strain MH12): 1.0 µg/mL (≈ 1.06 µM)
MIC (Candida auris; Table 2, strain AR Bank #0390): 0.25 µg/mL (≈ 0.266 µM)
IC50 (Candida auris; Table 2, strain AR Bank #0381): 0.25 µg/mL (≈ 0.266 µM)
MIC (Candida auris; Table 2, strain AR Bank #0381): 0.5 µg/mL (≈ 0.532 µM)
IC50 (Candida parapsilosis; Table 2, strain AR Bank #0337): 0.5 µg/mL (≈ 0.532 µM)
MIC (Candida parapsilosis; Table 2, strain AR Bank #0337): 1 µg/mL (≈ 1.06 µM)
IC50 (Candida parapsilosis; Table 3, strain AR Bank #0337): 1 µg/mL (≈ 1.06 µM)
MIC (Candida parapsilosis; Table 3, strain AR Bank #0337): 1 µg/mL (≈ 1.06 µM)
IC50 (Candida parapsilosis; Table 3, strain AR Bank #0338): 0.5 µg/mL (≈ 0.532 µM)
MIC (Candida parapsilosis; Table 3, strain AR Bank #0338): 1 µg/mL (≈ 1.06 µM)
IC50 (Candida parapsilosis; Table 3, strain AR Bank #0339): 1 µg/mL (≈ 1.06 µM)
MIC (Candida parapsilosis; Table 3, strain AR Bank #0339): 2 µg/mL (≈ 2.13 µM)
IC50 (Candida glabrata; Nakaseomyces glabratus, Table 2, strain AR Bank #0325): 0.5 µg/mL (≈ 0.532 µM)
MIC (Candida glabrata; Nakaseomyces glabratus, Table 2, strain AR Bank #0325, read-out: MIC): 1 µg/mL (≈ 1.06 µM)
IC50 (Candida glabrata; Nakaseomyces glabratus, Table 3, strain AR Bank #0325): 0.5 µg/mL (≈ 0.532 µM)
MIC (Candida glabrata; Nakaseomyces glabratus, Table 3, strain AR Bank #0325, read-out: MIC): 1 µg/mL (≈ 1.06 µM)
IC50 (Candida glabrata; Nakaseomyces glabratus, Table 3, strain AR Bank #0326): 0.25 µg/mL (≈ 0.266 µM)
MIC (Candida glabrata; Nakaseomyces glabratus, Table 3, strain AR Bank #0326, read-out: MIC): 0.5 µg/mL (≈ 0.532 µM)
IC50 (Candida glabrata; Nakaseomyces glabratus, Table 3, strain AR Bank #0335): 2 µg/mL (≈ 2.13 µM)
MIC (Candida glabrata; Nakaseomyces glabratus, Table 3, strain AR Bank #0335, read-out: MIC): 8 µg/mL (≈ 8.5 µM)
MIC (Candida glabrata; Table 3, strain AR Bank #0335): 8.0 µg/mL (≈ 8.5 µM)
